Measurements as given in publication PMC7898037, “Improving mitochondria and ER stability helps eliminate upper motor neuron degeneration that occurs due to mSOD1 toxicity and TDP‐43 pathology” (Clinical and Translational Medicine, 2021).

Key:
[1] = tested on: UMN apical dendrites of prpTDP‐43^A315T‐UeGFP mice; assay: UMN apical dendrites with vacuoles, prpTDP‐43^A315T‐UeGFP mice; assay type: in vivo
Protocol: (§1) hSOD1^G93A‐UeGFP, prpTDP‐43^A315T‐UeGFP and WT‐UeGFP mice were weighed and the required NU‐9 dose per weight was calculated (20 or 100 mg/kg), which was administered once daily by oral gavage, starting at postnatal day (P)60 and continuing until P120. Animals from the untreated group received the vehicle (NMP and olive oil) only. For oral administration purposes, 20 ga × 38 mm plastic feeding tubes were used (Instech Laboratories, Inc). The gavage tip was inserted into the mouth directly over the tongue and into the pharynx. While observing the swallowing reflex, the tip was safely and smoothly slid into the esophagus. Once the administration was completed, the gavage tip was pulled straight out.
Mice were deeply anesthetized using ketamine (90 mg/kg) with xylazine (10 mg/kg), and transcardially perfused with 4% PFA in PBS. The brains were removed intact and postfixed (4% PFA, overnight) and stored in PBS with sodium azide (0.01%) at 4°C. Sections were cut in a coronal (50 µm) plane using a vibratome (Leica) and processed for immunocytochemical analyses.
The antibodies used are as follows: anti‐GFP (1:1000, Invitrogen; or 1:1000, Abcam) and anti‐misfolded SOD1 (B8H10, 1:250, Médimabs). Briefly, sections were treated with blocking solution (PBS, 0.05% BSA, 2% FBS, 1% Triton X‐100, and 0.1% saponin) for 30 min at room temperature and incubated with primary antibody diluted in blocking solution overnight at 4°C. Appropriate secondary fluorescent antibodies (1:500, AlexaFluor‐conjugated, Invitrogen) were added to the blocking solution at room temperature for 2 h in the dark.

hERG channel = details: cited from earlier work
Weight of the mice = assay type: in vivo; parameters: Mean Diff. of weight, vehicle vs. NU-9: unit not given here; details: for Mean weight (Mean 2): WT-UeGFP mice, in g (unit assumed); for Weight, Average: WT-UeGFP
Protocol: as §1
Behavior data were collected from hSOD1^G93A‐UeGFP and WT‐UeGFP mice (starting at P60 and every 7 days until P116) and from prpTDP‐43^A315T‐UeGFP mice (at P60, P90, and P120) with the following number of mice for each group: WT‐UeGFP vehicle (n = 10), hSOD1^G93A‐UeGFP vehicle (n = 6), WT‐UeGFP 20 mg/kg/day NU‐9 (n = 5), hSOD1^G93A‐UeGFP 20 mg/kg/day NU‐9 (n = 7), WT‐UeGFP 100 mg/kg/day NU‐9 (n = 11), hSOD1^G93A‐UeGFP 100 mg/kg/day NU‐9 (n = 9), prpTDP‐43^A315T‐UeGFP untreated (n ≥ 3), and prpTDP‐43^A315T‐UeGFP 100 mg/kg/day NU‐9 (n = 4) (Table S3).

With `C[C@H](Oc1cc(C(F)(F)F)cc(C(F)(F)F)c1)C1CC(=O)CC(=O)C1` [NU‐9] the “Mean Diff., Fig. 7E, GT Untreated vs. GT NU-9 (100)” value ([1]; prpTDP43A315T-UeGFP untreated minus NU-9 100 mg/kg/day, Tukey's multiple comparisons test) was 70.28, the “Mean, Fig. 7E (UMN apical dendrites with vacuoles)” value ([1]; prpTDP-43A315T-UeGFP mice, NU-9 100 mg/kg/day) was 10.93 and the “percentage of UMNs with vacuolated primary apical dendrites” value ([1]; prpTDP‐43^A315T‐UeGFP mice, 100 mg/kg/day oral gavage P60–P120) was 11% ± 1%. For the same compound, the “inhibition of the hERG channel” value (hERG channel) was “little inhibition”, the hERG antagonism (hERG channel; up to 30 µM) was “No inhibition up to 30 µM” and the “Mean Diff. of weight, vehicle vs. NU-9” value (Weight of the mice; WT-UeGFP (vehicle) vs. WT-UeGFP (NU-9 20 mg/kg/day), P60, Tukey's multiple comparisons test) was -0.6. The “Mean Diff. of weight, vehicle vs. NU-9” value (Weight of the mice; WT-UeGFP (vehicle) vs. WT-UeGFP (NU-9 20 mg/kg/day), P67, Tukey's multiple comparisons test) was -1.3, the “Mean Diff. of weight, vehicle vs. NU-9” value (Weight of the mice; WT-UeGFP (vehicle) vs. WT-UeGFP (NU-9 20 mg/kg/day), P74, Tukey's multiple comparisons test) was -0.9 and the “Mean Diff. of weight, vehicle vs. NU-9” value (Weight of the mice; WT-UeGFP (vehicle) vs. WT-UeGFP (NU-9 20 mg/kg/day), P81, Tukey's multiple comparisons test) was -0.5. For the same compound, the “Mean Diff. of weight, vehicle vs. NU-9” value (Weight of the mice; WT-UeGFP (vehicle) vs. WT-UeGFP (NU-9 20 mg/kg/day), P88, Tukey's multiple comparisons test) was -0.1, the “Mean Diff. of weight, vehicle vs. NU-9” value (Weight of the mice; WT-UeGFP (vehicle) vs. WT-UeGFP (NU-9 20 mg/kg/day), P95, Tukey's multiple comparisons test) was 0 and the “Mean Diff. of weight, vehicle vs. NU-9” value (Weight of the mice; WT-UeGFP (vehicle) vs. WT-UeGFP (NU-9 20 mg/kg/day), P102, Tukey's multiple comparisons test) was -0.2. The “Mean Diff. of weight, vehicle vs. NU-9” value (Weight of the mice; WT-UeGFP (vehicle) vs. WT-UeGFP (NU-9 20 mg/kg/day), P109, Tukey's multiple comparisons test) was -1, the “Mean Diff. of weight, vehicle vs. NU-9” value (Weight of the mice; WT-UeGFP (vehicle) vs. WT-UeGFP (NU-9 20 mg/kg/day), P116, Tukey's multiple comparisons test) was -1.267 and the “Mean Diff. of weight, vehicle vs. NU-9” value (Weight of the mice; WT-UeGFP (vehicle) vs. WT-UeGFP (NU-9 100 mg/kg/day), P60, Tukey's multiple comparisons test) was -0.01818. The “Mean Diff. of weight, vehicle vs. NU-9” value (Weight of the mice; WT-UeGFP (vehicle) vs. WT-UeGFP (NU-9 100 mg/kg/day), P67, Tukey's multiple comparisons test) was -0.7545, the “Mean Diff. of weight, vehicle vs. NU-9” value (Weight of the mice; WT-UeGFP (vehicle) vs. WT-UeGFP (NU-9 100 mg/kg/day), P74, Tukey's multiple comparisons test) was -0.2818 and the “Mean Diff. of weight, vehicle vs. NU-9” value (Weight of the mice; WT-UeGFP (vehicle) vs. WT-UeGFP (NU-9 100 mg/kg/day), P81, Tukey's multiple comparisons test) was -0.9364. The “Mean Diff. of weight, vehicle vs. NU-9” value (Weight of the mice; WT-UeGFP (vehicle) vs. WT-UeGFP (NU-9 100 mg/kg/day), P88, Tukey's multiple comparisons test) was -0.2091, the “Mean Diff. of weight, vehicle vs. NU-9” value (Weight of the mice; WT-UeGFP (vehicle) vs. WT-UeGFP (NU-9 100 mg/kg/day), P95, Tukey's multiple comparisons test) was -0.2 and the “Mean Diff. of weight, vehicle vs. NU-9” value (Weight of the mice; WT-UeGFP (vehicle) vs. WT-UeGFP (NU-9 100 mg/kg/day), P102, Tukey's multiple comparisons test) was -0.5636. For the same compound, the “Mean Diff. of weight, vehicle vs. NU-9” value (Weight of the mice; WT-UeGFP (vehicle) vs. WT-UeGFP (NU-9 100 mg/kg/day), P109, Tukey's multiple comparisons test) was -0.2545, the “Mean Diff. of weight, vehicle vs. NU-9” value (Weight of the mice; WT-UeGFP (vehicle) vs. WT-UeGFP (NU-9 100 mg/kg/day), P116, Tukey's multiple comparisons test) was -0.7576 and the “Mean weight (Mean 2)” value (Weight of the mice; NU-9 20 mg/kg/day, P60) was 18.4. For the same compound, the “Mean weight (Mean 2)” value (Weight of the mice; NU-9 20 mg/kg/day, P67) was 19, the “Mean weight (Mean 2)” value (Weight of the mice; NU-9 20 mg/kg/day, P74) was 18.8 and the “Mean weight (Mean 2)” value (Weight of the mice; NU-9 20 mg/kg/day, P81) was 18.2. For the same compound, the “Mean weight (Mean 2)” value (Weight of the mice; NU-9 20 mg/kg/day, P88) was 18.8, the “Mean weight (Mean 2)” value (Weight of the mice; NU-9 20 mg/kg/day, P95) was 18.8 and the “Mean weight (Mean 2)” value (Weight of the mice; NU-9 100 mg/kg/day, P60) was 17.82. The “Mean weight (Mean 2)” value (Weight of the mice; NU-9 100 mg/kg/day, P67) was 18.45, the “Mean weight (Mean 2)” value (Weight of the mice; NU-9 100 mg/kg/day, P74) was 18.18 and the “Mean weight (Mean 2)” value (Weight of the mice; NU-9 100 mg/kg/day, P81) was 18.64. For the same compound, the “Mean weight (Mean 2)” value (Weight of the mice; NU-9 100 mg/kg/day, P88) was 18.91, the “Mean weight (Mean 2)” value (Weight of the mice; NU-9 100 mg/kg/day, P95) was 19 and the “Weight, Average” value (Weight of the mice; NU-9 20 mg/kg/day po, P60) was 18.4 g. For the same compound, the “Weight, Average” value (Weight of the mice; NU-9 20 mg/kg/day po, P67) was 19 g, the “Weight, Average” value (Weight of the mice; NU-9 20 mg/kg/day po, P74) was 18.8 g and the “Weight, Average” value (Weight of the mice; NU-9 20 mg/kg/day po, P81) was 18.2 g. The “Weight, Average” value (Weight of the mice; NU-9 20 mg/kg/day po, P88) was 18.8 g, the “Weight, Average” value (Weight of the mice; NU-9 20 mg/kg/day po, P95) was 18.8 g and the “Weight, Average” value (Weight of the mice; NU-9 20 mg/kg/day po, P102) was 19 g. For the same compound, the “Weight, Average” value (Weight of the mice; NU-9 20 mg/kg/day po, P109) was 20.2 g, the “Weight, Average” value (Weight of the mice; NU-9 20 mg/kg/day po, P116) was 20.6 g and the “Weight, Average” value (Weight of the mice; NU-9 100 mg/kg/day po, P60) was 17.8182 g. The “Weight, Average” value (Weight of the mice; NU-9 100 mg/kg/day po, P67) was 18.6 g, the “Weight, Average” value (Weight of the mice; NU-9 100 mg/kg/day po, P74) was 18.1 g and the “Weight, Average” value (Weight of the mice; NU-9 100 mg/kg/day po, P81) was 18.7 g. The “Weight, Average” value (Weight of the mice; NU-9 100 mg/kg/day po, P88) was 18.9 g and the “Weight, Average” value (Weight of the mice; NU-9 100 mg/kg/day po, P95) was 19 g.
